These results are taken from US20100247590A1, “Peptide-Based Systems For Delivery Of Cosmetic Agents” (JOHNSON & JOHNSON, priority 2009, published 2010).

Where two headings read alike, the source gives them in different places. No end group written: not given here.

For experiment [1] the following is noted: biotinylated peptide, streptavidin-HRP ELISA. The text has this:
See, e.g., Example 3 of U.S. Patent Application Publication 2005/022683; hereby incorporated by reference. The MB50 provides an indication of the strength of the binding interaction or affinity of the components of the complex. […] For example, a peptide with a nanomolar (nM) MBso binds more tightly than a peptide with a micromolar (μM) MB50.
The purpose of this Example was to determine the affinity and specificity of the various hair-binding peptides for hair and pigment surfaces, measured as MB50 values, using an ELISA assay. Each of the short, linear peptides were originally identified using phage display. Unless otherwise indicated, the sequences provided in Example 2 include a C-terminal lysine residue that was biotinylated for detection purposes.
The MB50 measurements of biotinylated peptides binding to hair and to red iron oxide particles (Unipure Red from Sensient Technologies, Milwaukee, Wis.) were made using hair bundles. The hair samples were assembled in bundles consisting of 100 hairs about 1 cm long which were bundled together using narrow tape at one end. The hair bundles were incubated in SUPERBLOCK® blocking buffer (Pierce Chemical Co., Rockford, Ill.) for 1 hour at room temperature (˜22° C.), followed by 3 washes with TBST (TBS in 0.05% TWEEN® 20). Peptide binding buffer consisting of various concentrations of biotinylated peptide in TBST and 1 mg/mL BSA was added to the hair bundles and incubated for 1 hour at room temperature, followed by 6 TBST washes. Then, the streptavidin-horseradish peroxidase (HRP) conjugate (Pierce Chemical Co., Rockford, Ill.) was added to each well (1.0 μg per well), and incubated for 1 h at room temperature, followed by 6 times of washes with TBST. All hair bundles were transferred to new tubes and then the color development and the absorbance measurements were performed following standard protocols. The results were plotted as A450 versus the concentration of peptide using GraphPad Prism 4.0 (GraphPad Software, Inc., San Diego, Calif.).

Experiment [2] in a line: Peptide-mediated binding of Co-NTA magnetic beads to gray hair, visual rating on magnet. Also noted: species or system human. Particulars: Table 11; peptide 0.2 μM. As for the experimental part:
Approximately 5 mg of 5 mm long hair strands (90% gray, human) were transferred to 2-mL microcentrifuge tubes. Approximately 1 mL of TBST0.1 buffer (25 mM Tris, 150 mM NaCl, pH7.2, with 0.1% TWEEN®-20) or the same buffer including varying concentrations of HC263 peptide was added to the hair.
The mixtures were shaken on a Nutator for one hour at room temperature (˜22° C.). The hairs were washed three times with TBST0.5 buffer (25 mM Tris, 150 mM NaCl, pH 7.2, with 0.5% TWEEN®-20). After washing, the hairs were resuspended in 900 μL Talon buffer (50 mM sodium phosphate, pH 8.0, 300 mM sodium chloride, 0.01% TWEEN®-20). A subset of hair/peptide conjugates were washed additionally one time with 1 mL of 0.25% SLES (Sodium Lauryl Ether Sulfate) for 5 min at room temperature on the Nutator, then washed two times with 1 mL TBST0.1 buffer. Approximately 0.2 mg of TALON™ beads (DYNABEADS® TALONT™, Invitrogen, Catalog#101.01D) were washed twice with TALON™ buffer on the DYNAL® MPC™ magnet and added to each reaction in 100 μL TALON™ buffer. […]
Beads binding to the hair were expected to co-migrate on the sides of the tubes once applied to the magnet. The strength of binding was visually assessed and rated on a scale of 0 (little or no observed binding) to 5 (highest amount of observed binding). […]

Experiment [3] can be described thus: Visual color assessment of hair treated with peptide then streptavidin-coated iron oxide beads (sequential coloring). Particulars: for color intensity value (0-5, 0 no color deposition, 5 deepest color): Table 15, streptavidin-coated iron oxide beads 500 nm; for perceptible color: Tables 17-19.
Procedure: A biotinylated peptide and streptavidin-bead system was used to color hair. Sequential deposition was achieved by the following process.
Miniature hair tresses of approximately 1 inch in length containing 100% unpigmented hair were placed in an aqueous solution with 20 mM of peptides (in DI water or Tris Buffered Saline, pH 7.2, 5-150 mM ionic strength), for up to one hour at room temperature, derived in accordance with the methods set forth herein.
Hair samples were pretreated by exposing the hair to different peptides. The peptide created a layer on the hair. Hair samples with a peptide layer were rinsed with SLES solution to remove excess peptide. Next, the peptide-treated hair samples were incubated with streptavidin tagged iron oxide particles (Bangs Laboratories, Inc., Fishers, Ind.; Ademtech, Inc., Pessas, France) to allow the binding between biotin and streptavidin or between the streptavidin-binding domain in HC260 and streptavidin. Particles were purchased in dispersed form and were diluted to 0.025-1 wt % by adding a specified amount of either DI water or Coupling Buffer from Ademtech. Binding was permitted to take place during an incubation period for up to 24 hours at room temperature (˜22° C.) in the dark. Samples were continuously inverted end-over-end during the binding duration incubation period.
A color scale for the associated color intensity of iron oxide treated hair was defined as (0-5), where 0 is no color deposition and 5 is the deepest color.
For experiment [4] the following is noted: 200 nm streptavidin-coated iron oxide beads; FIGS. 4A and 4B. The source says:
Humans can perceive color that is in about the 400 nm to 700 nm range. Ultraviolet light, i.e., 200-400 nm is not visible to humans.

The conditions of experiment [5]: fluorescence microscopy, FIG. 1.
Procedure: A biotinylated peptide and streptavidin-coated bead system was used to illustrate the coupling of beads to hair in accordance with the methods and compositions of this invention.
A human hair sample was placed in an aqueous solution containing 20 mM of HCP5 dimer peptide (SEQ ID NO: 204) derived in accordance with the methods set forth herein. […] The HCP5 dimer was purchased from American Peptide Co., Inc. (Sunnyvale, Calif.) in both biotinylated (SEQ ID NO: 205) and non-biotinylated (SEQ ID NO: 204) versions (a single lysine residue was added to the C-terminus of the biotinylated version to facilitate biotin coupling).
Hair samples were pretreated by exposing the hair samples to either the biotinylated or the non-biotinylated peptide. Ten strands of natural dark brown hair (International Hair Importers), three inches in length, were pre-washed with 2% SLES for 30 seconds, then rinsed extensively with DI water. The hair strands were then immersed in 10 mL of a 5-20 micromolar solution of peptide for up to one hour. Ten hair samples were exposed to the biotinylated peptide and ten hair samples were exposed to non-biotinylated peptide. […]
After the incubation period ended, fluorescence microscopy was used to view the binding of 40 nm fluorescently-labeled streptavidin-coated polystyrene particles to hair.
The target in another experiment is streptavidin (Streptomyces avidinii, UniProt P22629). In words: biochemical.
Chain of streptavidin (P22629 25-183): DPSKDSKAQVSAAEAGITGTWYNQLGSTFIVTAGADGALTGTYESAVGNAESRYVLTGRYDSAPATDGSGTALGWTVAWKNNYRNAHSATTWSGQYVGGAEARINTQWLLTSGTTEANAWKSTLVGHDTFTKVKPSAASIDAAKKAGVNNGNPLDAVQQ
[6] abbreviates: Table 17, 200 nm particles, initial, before washing with water.
The mark [7] stands for this setting: Table 18, 200 nm particles, after washing with water.
The mark [8] stands for this setting: Table 18, 500 nm particles, after washing with water.
Where [9] appears, read: Table 19, 200 nm particles, after 0.25% SLES wash.

As for AQSQLPDKHSGLHERAPQRYK-Biotin [Hair2], the MB50 in experiment [1] (substrate 90% gray hair) stood at 0.25 µM; in experiment [1] (substrate Unipure Red particle) it was 6.8 µM.
In the case of “GSDPG-Gray3-GGG-Gray3-GGGGSGGGGSG-HHHHHH (GSDPGHDHKNQKETHQRHAAGGGHDHKNQKETHQRHAAGGGGSGGGGSGHHHHHH) [HC214]”, the “Strength of binding (5 highest, 0 lowest)” value in experiment [2] was determined as 0.
The same measure, in the same setting: to “GSDPG-IB5A-GGGGSGGGGSG-HHHHHH (GSDPGTPPELLHGAPRSGGGGSGGGGSGHHHHHH) [HC205]” belongs 0.
With HCP5-GGSGPGSGG-HCP5 [(HCP5)2], in experiment [3], the “color intensity value (0-5, 0 no color deposition, 5 deepest color)” value came to 0. In addition, the “color scale score (0-5)” value in experiment [3] (Table 16, streptavidin-coated iron oxide beads, sequential coloring method) was found to be 0. Further, the “color measurement (0-5 color scale)” value in experiment [3] (setting [6]) is 0; in experiment [3] (Table 17, 500 nm particles, initial, before washing with water), 0; in experiment [3] (setting [7]), 0; in experiment [3] (setting [8]), 0; in experiment [3] (setting [9]), 0; in experiment [3] (Table 19, 500 nm particles, after 0.25% SLES wash) it was 0.
Consider HCP5-GGSGPGSGG-HCP5-K [(HCP5)2-biotin], for which the “deposition of beads on hair” value in experiment [4] is given as 200 nm beads were deposited on the hair. Besides, in experiment [5], the “binding of 40 nm fluorescently-labeled streptavidin-coated polystyrene particles to hair” value was “bound the particles to hair”. Also, the perceptible color entry in experiment [3] (200 nm beads) is “did not exhibited perceptible color”; in experiment [3] (500 nm beads), “exhibited perceptible color”. Further, in experiment [3], the “color intensity value (0-5, 0 no color deposition, 5 deepest color)” value is 4. Further, the “color measurement (0-5 color scale)” value in experiment [3] (setting [6]) was 0; in experiment [3] (setting [7]), 0; in experiment [3] (setting [8]), 3; in experiment [3] (setting [9]), 0.
In the case of HINKTNPHQGNHHSEKTQRQK-Biotin [MEA4], the MB50 in experiment [1] (substrate 90% gray hair) is 0.061 µM; in experiment [1] (substrate Unipure Red particle) it was 8.7 µM.
For the substance MLSENWLTNHPQN [SB33N], on streptavidin, the Kd was about 100 µM.
Regarding THSTHNHGSPRHTNADAGNPK-Biotin [HCP1], the values for the MB50 in experiment [1] (substrate 90% gray hair) and in experiment [1] (substrate Unipure Red particle) were 0.044 µM and 9.8 µM, respectively.
On the same counts, the results for TPPELAHTPHHLAQTRLTDRK-Biotin [Hair4] are 0.15 µM and 5 µM.
